Entries after “also recorded” stand apart in the source; their conditions may differ.
Tested on: vincristine-induced hyperalgesia in rats
Experiment: Vincristine-induced hyperalgesia in rats, electronic Von Frey test (paw-withdrawal threshold)
Type: in vivo, Sprague Dawley rats
Procedure: Female Sprague Dawley rats were divided randomly into 5 groups (n=10), according to Table 7. Groups 2-4 were administered Vincristine 0.10 mg/kg injected intravenously (i.v.) via tail vein followed by a bolus injection of 0.1 ml PBS vehicle, once daily for 14 days. Group 1 was administered 1 ml/kg PBS vehicle alone according to the same schedule. D-Arg-2′6′-dimethyltyrosine-Lys-Phe-NH2 10 mg/kg was administered subcutaneously (s.c.) 15 minutes prior to vincristine administration for the full 14-day period (Group 3), or for a period of two weeks beginning at day 15 (Group 4). Group 5 was administered Vincristine 0.10 mg/kg injected i.v. via tail vein, followed by a bolus injection of 0.1 ml PBS vehicle once daily for 28 days, and D-Arg-2′6′-dimethyltyrosine-Lys-Phe-NH2 10 mg/kg administered s.c. for a period of 14 days beginning at day 15.
Mechanical nociceptive threshold of paw-withdrawal was measured every two days using an electronic Von Frey test. Results are shown in FIG. 1 and FIG. 2 as means±SEM. One-way ANOVA with post-hoc test or t-test were used to assess the statistical significance, with p<0.05 is considered statistically significant. In FIG. 1, data for subjects receiving vincristine in the absence of simultaneous D-Arg-2′6′-dimethyltyrosine-Lys-Phe-NH2 (Groups 2, 4, 5) is shown collectively as “Group A.”

| Molecule | treatment of vincristine-induced hyperalgesia (FIG. 2, rats, Groups 4 and 5) | pain threshold (mechanical nociceptive threshold of paw-withdrawal), prevention (Group 3: peptide 10 mg/kg s.c. daily 15 min prior to vincristine 0.10 mg/kg i.v. for 14 days, vs vehicle-only control (Group 1), FIG. 1) | pain threshold (mechanical nociceptive threshold of paw-withdrawal), treatment after withdrawal of vincristine (Group 4: vincristine 0.10 mg/kg i.v. 14 days, then peptide 10 mg/kg s.c. daily for two weeks beginning at day 15, FIG. 2) | pain threshold (mechanical nociceptive threshold of paw-withdrawal), treatment while vincristine continues (Group 5: vincristine 0.10 mg/kg i.v. 28 days, peptide 10 mg/kg s.c. daily for 14 days beginning at day 15, FIG. 2) | pain threshold after withdrawal of vincristine, no peptide (Group 2: vincristine 0.10 mg/kg i.v. 14 days + PBS vehicle, followed after day 14, FIG. 2) | pain threshold (mechanical nociceptive threshold of paw-withdrawal) under vincristine (vincristine 0.10 mg/kg i.v. daily for 14 days without peptide, vs vehicle-only control (Group 1)) |
| --- | --- | --- | --- | --- | --- | --- |
| D-Arg-2′6′-dimethyltyrosine-Lys-Phe-NH2 | effective in the treatment of vincristine-induced hyperalgesia in rats | not significantly different from the vehicle-only control; also recorded: effective in the prevention of vincristine-induced hyperalgesia in rats | improved pain threshold as soon as day 15, with continued improvement through day 25 | an arrest of the downward trend in pain threshold evident in the initial 14 day period, followed by an improvement in pain threshold beginning at day 16 | – | – |
| CC[C@]1(O)C[C@H]2CN(CCc3c([nH]c4ccccc34)[C@@](C(=O)OC)(c3cc4c(cc3OC)N(C=O)[C@H]3[C@@](O)(C(=O)OC)[C@H](OC(C)=O)[C@]5(CC)C=CCN6CC[C@]43[C@@H]65)C2)C1 [vincristine, reference compound] | – | – | – | – | continued to show a decline in pain thereshold, reaching a low point at day 21, and showed a moderate improvement beginning at day 22 | a decrease in pain threshold response compared to a vehicle-only control |
